Experimental data taken from US20240285670A1, “THERAPEUTIC TREATMENT OF TUMORS BY BLOCKING THE HEME SYNTHESIS-EXPORT AXIS” (Università degli Studi di Torino, priority 2021, published 2024).

How the values were obtained:
[1] = tested on: SHSY5Y cells; experiment: Proliferation of SHSY5Y cells by crystal violet staining; type: cell-based, human; conditions: 5 mM ALA at day 0, no medium refresh
Protocol: (A) Heme content in SHSY5Y cells non-treated (NT) or treated with 5 mM ALA for 15 hours. Values are expressed as pmol heme/mg protein. Data represent mean±SEM, n=3; *=P<0.05. (B, C) qRT-PCR analysis of the expression of ALAS1 (B) and FLVCR1a (C) in SHSY5Y cells non-treated (NT) or treated with 5 mM ALA for 15 hours. Transcript abundance, normalized to beta-actin mRNA expression, is expressed as a fold increase over a calibrator sample. Data represent mean±SEM, n=4. For statistical analyses, an unpaired Student's t-test was used; *p<0.05. (D) qRT-PCR analysis of the expression of ALAS1 in SKCO1 cells untreated (NT) or treated with 5 mM ALA for 24 hours. Transcript abundance, normalized to beta-actin mRNA expression, is expressed as a fold increase over a calibrator sample. Data represent mean±SEM, n=5. […] Band intensities were measured by densitometry and normalized to beta-actin expression. […] (F) Proliferation of SHSY5Y cells assessed by crystal violet staining at different time points (starting from the day after plating, named “day 0”). Treatment with 5 mM ALA occurred at “day 0” and cells were monitored until the end of the experiment without medium refresh. […] (G) SKCO1 cells viability measured by the CellTiter-Fluor Cell Viability Assay (Promega, Madison, WI USA, catalog n°G6080) at different time points, starting from the day after plating (named “day 0”), as a readout of cell proliferation. […]

[2] = tested on: SKCO1 cells; experiment: Mitochondrial ATP levels in SKCO1 cells; type: cell-based, human; conditions: FLVCR1a-silenced vs scramble shRNA SKCO1 cells
Excerpt: (A, C, E) Activities of the mitochondrial electron transport chain complexes I-IV. FLVCR1a-silenced Caco2 (A), SKCO1 (C) or C80 cells (E) are compared to cells expressing a scramble shRNA. Results were expressed as nmol NAD^+/min/mg mitochondrial protein for complex I, nmol reduced cytochrome c/min/mg mitochondrial protein for complexes II-III, nmol oxidized cytochrome c/min/mg mitochondrial protein for complex IV. Data represent mean±SEM, n=3. For statistical analyses, an unpaired Student's t-test was used; *=p<0.05, **=p<0.01. (B, D, F) Mitochondrial ATP levels measured by a bioluminescent assay kit. FLVCR1a-silenced Caco2 (B), SKCO1 (D) or C80 cells (F) are compared to cells expressing a scramble shRNA. Results are expressed as nmol/mg mitochondrial proteins. […] Results were expressed as nmol NAD^+/min/mg mitochondrial protein for complex I, nmol reduced cytochrome c/min/mg mitochondrial protein for complexes II-III, nmol oxidized cytochrome c/min/mg mitochondrial protein for complex IV. […] (H) Mitochondrial ATP levels measured by a bioluminescent assay kit in Caco2 cells overexpressing FLVCR1a (indicated as FLVCR1a+) compared to cells stably transduced with an empty vector. Results are expressed as nmol/mg mitochondrial proteins. […]
ATP levels in mitochondria extracts were assessed by the ATP Bioluminescent Assay Kit (Sigma-Aldrich, St. Louis, MO USA, catalog n° FLAA). […]

Compound	cell proliferation [1]	mitochondrial ATP levels [2]
Cl.NCC(=O)CCC(=O)O [5-ALA, 5-Aminolevulinic acid hydrochloride]	reduced SHSY5Y cell proliferation	
FLVCR1a shRNA: shRNA specifically down-regulating FLVCR1a without targeting FLVCR1b; pLKO.1 lentiviral clone TRCN0000059599, antisense SEQ ID No.: 2 (antisense TTGCTAATGATGCTGTACTGG; sense CCAGTACAGCATCATTAGCAA)		increased
